Assay results: patent US4311842A, “Cephalosporin compounds” (Yamanouchi Pharmaceutical Co., Ltd., priority 1978, dated 1982)
Values after ≈ are worked out from the molar mass of the structure shown.

Key:
Assay type in all cases: cell-based
[1] = system: Pseudomonas aeruginosa ATCC 8689; assay: Antibacterial activity, minimum inhibitory concentration, Pseudomonas aeruginosa ATCC 8689; details: ATCC8689
Excerpt: (§1) The antibacterial activity (the minimum inhibitory concentration) of the compounds of this invention shown by formula I is shown in the following table in comparison to those of known compounds having similar structures, 7-[2-amino-2-(2-aminothiazol-4-yl)acetamido]-3-(1-methyl-tetrazol-5-yl)thiomethyl-Δ^3 -cephem-4-carboxylic acid (Compound A) having the following formula [drawing 8] and 7-[2-amino-2-(2-aminothiazol-4-yl)acetamido]cephalosporanic acid Compound B) having the following formula; [drawing 9]

Corynebacterium xerosis = assay: Antibacterial activity, minimum inhibitory concentration, Corynebacterium xerosis
Excerpt: as §1

[2] = system: Staphylococcus aureus ATCC 6538P; assay: Antibacterial activity, minimum inhibitory concentration, Staphylococcus aureus ATCC 6538P; details: ATCC6538P
Excerpt: as §1

[3] = system: Salmonella enteritidis 1891; assay: Antibacterial activity, minimum inhibitory concentration, Salmonella enteritidis 1891; details: Salmonella enterica
Excerpt: as §1

[4] = system: Pseudomonas aeruginosa NCTC 10490; assay: Antibacterial activity, minimum inhibitory concentration, Pseudomonas aeruginosa NCTC 10490; details: NCTC10490
Excerpt: as §1

[5] = system: Bacillus subtilis ATCC 6633; assay: Antibacterial activity, minimum inhibitory concentration, Bacillus subtilis ATCC 6633; details: ATCC6633
Excerpt: as §1

[6] = system: Pseudomonas aeruginosa 99; assay: Antibacterial activity, minimum inhibitory concentration, Pseudomonas aeruginosa 99; details: Pseudomonas aeruginosa 99 (Gentamicin-resistant)
Excerpt: as §1

Proteus vulgaris OXK US = assay: Antibacterial activity, minimum inhibitory concentration, Proteus vulgaris OXK US
Excerpt: as §1

[7] = system: Proteus mirabilis IFM OM-9; assay: Antibacterial activity, minimum inhibitory concentration, Proteus mirabilis IFM OM-9; details: IFMOM9
Excerpt: as §1

[8] = system: Staphylococcus aureus Oonuma; assay: Antibacterial activity, minimum inhibitory concentration, Staphylococcus aureus Oonuma; details: Staphylococcus aureus Oonuma (penicillin, Streptomycin-resistant)
Excerpt: as §1

Vibrio Hy 133 = assay: Antibacterial activity, minimum inhibitory concentration, Vibrio Hy 133; details: HY133
Excerpt: as §1

[9] = system: Staphylococcus aureus 209P; assay: Antibacterial activity, minimum inhibitory concentration, Staphylococcus aureus 209P
Excerpt: as §1

Row | SMILES | MIC [1] [µg/mL] | MIC (Corynebacterium xerosis) [µg/mL] | MIC [2] [µg/mL] | MIC [3] [µg/mL] | MIC [4] [µg/mL] | MIC [5] [µg/mL] | MIC [6] [µg/mL] | MIC (Proteus vulgaris OXK US) [µg/mL] | MIC [7] [µg/mL] | MIC [8] [µg/mL] | MIC (Vibrio Hy 133) [µg/mL] | MIC [9] [µg/mL]
1 | Cc1cc(O)c(C(=O)NC(C(=O)NC2C(=O)N3C(C(=O)O)=C(CSc4nnnn4C)CSC23)c2cscn2)cn1 (racemic) [Example 8, DL-7-[2-(4-hydroxy-6-methylnicotinamido)-2-(thiazol-4-yl)-acetamido]-3-(1-methyltetrazol-5-yl)thiomethyl-Δ^3-cephem-4-carboxylic acid] | 25 (≈ 41.4 µM) | 3.13 (≈ 5.18 µM) | 1.56 (≈ 2.58 µM) | 0.78 (≈ 1.29 µM) | 0.78 (≈ 1.29 µM) | 3.13 (≈ 5.18 µM) | 12.5 (≈ 20.7 µM) | 1.56 (≈ 2.58 µM) | 1.56 (≈ 2.58 µM) | 6.25 (≈ 10.4 µM) | 0.78 (≈ 1.29 µM) | 1.56 (≈ 2.58 µM)
2 | CC(=O)OCC1=C(C(=O)O)N2C(=O)C(NC(=O)C(NC(=O)c3cnc(C)cc3O)c3csc(N)n3)C2SC1 (racemic) [Example 2, DL-7-[2-(4-hydroxy-6-methylnicotinamido)-2-(2-aminothiazol-4-yl)acetamido]cephalosporanic acid] | 50 (≈ 88.9 µM) | 6.25 (≈ 11.1 µM) | 6.25 (≈ 11.1 µM) | 0.78 (≈ 1.39 µM) | 1.56 (≈ 2.77 µM) | 6.25 (≈ 11.1 µM) | 25 (≈ 44.4 µM) | 0.78 (≈ 1.39 µM) | 0.39 (≈ 0.693 µM) | 12.5 (≈ 22.2 µM) | 0.78 (≈ 1.39 µM) | 3.13 (≈ 5.56 µM)
3 | Cn1nnnc1SCC1=C(C(=O)O)N2C(=O)C(NC(=O)C(NC(=O)c3csccc3=O)c3cscn3)C2SC1 (racemic) [Example 5, DL-7-[2-(4-oxo-4H-thiopyran-3-carboxamido)-2-(thiazol-4-yl)acetamido]-3-(1-methyltetrazol-5-yl)thiomethyl-Δ^3-cephem-4-carboxylic acid] | 50 (≈ 82.4 µM) | 3.13 (≈ 5.16 µM) | 1.56 (≈ 2.57 µM) | 0.78 (≈ 1.29 µM) | 1.56 (≈ 2.57 µM) | 3.13 (≈ 5.16 µM) | 50 (≈ 82.4 µM) | 1.56 (≈ 2.57 µM) | 1.56 (≈ 2.57 µM) | 6.25 (≈ 10.3 µM) | 0.39 (≈ 0.643 µM) | 0.78 (≈ 1.29 µM)
4 | Cn1nnnc1SCC1=C(C(=O)O)N2C(=O)C(NC(=O)C(NC(=O)c3csccc3=O)c3csc(N)n3)C2SC1 (racemic) [Example 6, DL-7-[2-(2-aminothiazol-4-yl)-2-(4-oxo-4H-thiopyran-3-carboxyamido)acetamido]-3-(1-methyltetrazol-5-yl)thiomethyl-Δ^3-cephem-4-carboxylic acid] | 50 (≈ 80.4 µM) | 1.56 (≈ 2.51 µM) | 1.56 (≈ 2.51 µM) | 0.19 (≈ 0.306 µM) | 0.78 (≈ 1.25 µM) | 1.56 (≈ 2.51 µM) | 50 (≈ 80.4 µM) | 0.19 (≈ 0.306 µM) | 0.09 (≈ 0.145 µM) | 3.13 (≈ 5.03 µM) | 0.78 (≈ 1.25 µM) | 0.78 (≈ 1.25 µM)
5 | Cn1nnnc1SCC1=C(C(=O)O)N2C(=O)C(NC(=O)C(N)c3csc(N)n3)C2SC1 (stereo not drawn) [Compound A, 7-[2-amino-2-(2-aminothiazol-4-yl)acetamido]-3-(1-methyl-tetrazol-5-yl)thiomethyl-Δ^3-cephem-4-carboxylic acid, reference compound] | > 100 | 25 (≈ 51.7 µM) | 25 (≈ 51.7 µM) | 0.78 (≈ 1.61 µM) | 100 (≈ 207 µM) | 12.5 (≈ 25.8 µM) | > 100 | 6.25 (≈ 12.9 µM) | 1.56 (≈ 3.23 µM) | 100 (≈ 207 µM) | 6.25 (≈ 12.9 µM) | 12.5 (≈ 25.8 µM)
6 | Cc1cc(O)c(C(=O)NC(C(=O)NC2C(=O)N3C(C(=O)O)=C(CSc4nnnn4C)CSC23)c2csc(N)n2)cn1 (racemic) [Example 7, DL-7-[2-(2-aminothiazol-4-yl)-2-(4-hydroxy-6-methylnicotinamido)acetamido]-3-(1-methyltetrazol-5-yl)thiomethyl-Δ^3-cephem-4-carboxylic acid] | 25 (≈ 40.4 µM) | 6.25 (≈ 10.1 µM) | 1.56 (≈ 2.52 µM) | 0.09 (≈ 0.145 µM) | 0.39 (≈ 0.63 µM) | 3.13 (≈ 5.06 µM) | 12.5 (≈ 20.2 µM) | 0.19 (≈ 0.307 µM) | 0.09 (≈ 0.145 µM) | 6.25 (≈ 10.1 µM) | 0.78 (≈ 1.26 µM) | 1.56 (≈ 2.52 µM)
7 | CC(=O)OCC1=C(C(=O)O)N2C(=O)C(NC(=O)C(NC(=O)c3cnc(C)cc3O)c3cscn3)C2SC1 (racemic) [Example 1, DL-7-[2-(4-hydroxy-6-methylnicotinamido)-2-(thiazol-4-yl)acetamido]-cephalosporanic acid] | 25 (≈ 45.7 µM) | 3.13 (≈ 5.72 µM) | 3.13 (≈ 5.72 µM) | 3.13 (≈ 5.72 µM) | 1.56 (≈ 2.85 µM) | 3.13 (≈ 5.72 µM) | 25 (≈ 45.7 µM) | 1.56 (≈ 2.85 µM) | 3.13 (≈ 5.72 µM) | 6.25 (≈ 11.4 µM) | 0.78 (≈ 1.42 µM) | 1.56 (≈ 2.85 µM)
8 | CC(=O)OCC1=C(C(=O)O)N2C(=O)C(NC(=O)C(N)c3csc(N)n3)C2SC1 (stereo not drawn) [Compound B, 7-[2-amino-2-(2-aminothiazol-4-yl)acetamido]cephalosporanic acid, reference compound] | > 100 | 3.13 (≈ 7.32 µM) | 3.13 (≈ 7.32 µM) | 0.78 (≈ 1.82 µM) | > 100 | 1.56 (≈ 3.65 µM) | > 100 | 3.13 (≈ 7.32 µM) | 1.56 (≈ 3.65 µM) | 12.5 (≈ 29.2 µM) | 1.56 (≈ 3.65 µM) | 3.13 (≈ 7.32 µM)
9 | CC(=O)OCC1=C(C(=O)O)N2C(=O)C(NC(=O)C(NC(=O)c3csccc3=O)c3cscn3)C2SC1 (racemic) [Example 4, DL-7-[2-(4-oxo-4H-thiopyran-3-carboxamido)-2-(thiazol-4-yl)acetamido]cephalosporanic acid] | 100 (≈ 182 µM) | 1.56 (≈ 2.83 µM) | 1.56 (≈ 2.83 µM) | 6.25 (≈ 11.4 µM) | 6.25 (≈ 11.4 µM) | 1.56 (≈ 2.83 µM) | 100 (≈ 182 µM) | 3.13 (≈ 5.68 µM) | 6.25 (≈ 11.4 µM) | 6.25 (≈ 11.4 µM) | 0.78 (≈ 1.42 µM) | 1.56 (≈ 2.83 µM)
10 | CC(=O)OCC1=C(C(=O)O)N2C(=O)C(NC(=O)C(NC(=O)c3csccc3=O)c3csc(N)n3)C2SC1 (racemic) [Example 3, DL-7-[2-(2-aminothiazol-4-yl)-2-(4-oxo-4H-thiopyran-3-carboxamido)-acetamido]cephalosporanic acid] | 100 (≈ 177 µM) | 3.13 (≈ 5.53 µM) | 3.13 (≈ 5.53 µM) | 0.39 (≈ 0.69 µM) | 25 (≈ 44.2 µM) | 3.13 (≈ 5.53 µM) | 100 (≈ 177 µM) | 1.56 (≈ 2.76 µM) | 0.78 (≈ 1.38 µM) | 6.25 (≈ 11 µM) | 0.78 (≈ 1.38 µM) | 1.56 (≈ 2.76 µM)
